Assay: Moisture sensitivity: degradation of the isothiocyanate suspended in aqueous phosphate buffer
Assay type: physicochemical
Conditions: WMEO (about 25% 4-HBITC) suspended in aqueous phosphate buffer, pH about 3.6, about 20-23° C.
From the text: As used herein, the term “moisture sensitive” means that the isothiocyanate compound degrades in the presence of water. This degradation proceeds via a hydrolysis reaction, thereby leading to a reduction in level of the active isothiocyanate antimicrobial agent with time of storage in the presence of water. The method for determining moisture sensitivity is set forth in the Test Method section below. […]
Moisture sensitive isothiocyanate compounds are identified by suspending the isothiocyanate containing material in an aqueous phosphate buffer (pH of about 3.6) at room temperature. […] The extraction procedure is repeated after 24 hours and the level of residual isothiocyanate compound is measured by supercritical fluid chromatography. […]
A white mustard essential oil is generated by adding water to ground white mustard seeds and then extracting the essential oil with supercritical carbon dioxide according to the known processes described in the art. […] The essential oil is suspended in an aqueous phosphate buffer (pH of about 3.6) at room temperature (about 20-23° C.) and the level of 4-hydroxybenzyl isothiocyanate measured at time zero and after about 24 hours of storage as described in the preceding section. […]

Oc1ccc(CN=C=S)cc1 [4-hydroxybenzyl isothiocyanate]
percent reduction in level of 4-hydroxybenzyl isothiocyanate after 24 hours: about 72%

From patent publication US20110244078A1 (priority 2010, published 2011)
